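Each compound was tested at five concentrations against cells in 96-well plates for 48 hours. The concentration for 50% growth inhibition is given as GI50. At the TGI there is no net growth.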
Experiments:
Assay in all cases: growth of human tumour cells (NCI), 48 h
786-0 renal = tested on: 786-0 renal
A498 renal = tested on: A498 renal
ACHN renal = tested on: ACHN renal
BT-549 breast = tested on: BT-549 breast
CAKI-1 renal = tested on: CAKI-1 renal
CCRF-CEM leukemia = tested on: CCRF-CEM leukemia
DU-145 prostate = tested on: DU-145 prostate
EKVX NSCLC = tested on: EKVX NSCLC
HCC-2998 colon = tested on: HCC-2998 colon
HCT-15 colon = tested on: HCT-15 colon
HL-60(TB) leukemia = tested on: HL-60(TB) leukemia
HOP-62 NSCLC = tested on: HOP-62 NSCLC
HOP-92 NSCLC = tested on: HOP-92 NSCLC
HS 578T breast = tested on: HS 578T breast
IGROV1 ovarian = tested on: IGROV1 ovarian
K-562 leukemia = tested on: K-562 leukemia
KM12 colon = tested on: KM12 colon
LOX IMVI melanoma = tested on: LOX IMVI melanoma
MCF7 breast = tested on: MCF7 breast
MDA-MB-231 breast = tested on: MDA-MB-231 breast
MDA-MB-435 = tested on: MDA-MB-435
MOLT-4 leukemia = tested on: MOLT-4 leukemia
NCI-H226 lung = tested on: NCI-H226 lung
NCI-H460 lung = tested on: NCI-H460 lung
NCI/ADR-RES ovarian = tested on: NCI/ADR-RES ovarian
OVCAR-3 ovarian = tested on: OVCAR-3 ovarian
OVCAR-5 ovarian = tested on: OVCAR-5 ovarian
OVCAR-8 ovarian = tested on: OVCAR-8 ovarian
PC-3 prostate = tested on: PC-3 prostate
RPMI-8226 leukemia = tested on: RPMI-8226 leukemia
RXF 393 renal = tested on: RXF 393 renal
SF-268 CNS = tested on: SF-268 CNS
SF-295 CNS = tested on: SF-295 CNS
SF-539 CNS = tested on: SF-539 CNS
SK-MEL-2 melanoma = tested on: SK-MEL-2 melanoma
SK-MEL-28 melanoma = tested on: SK-MEL-28 melanoma
SK-MEL-5 melanoma = tested on: SK-MEL-5 melanoma
SK-OV-3 ovarian = tested on: SK-OV-3 ovarian
SN12C renal = tested on: SN12C renal
SNB-19 CNS = tested on: SNB-19 CNS
SNB-75 CNS = tested on: SNB-75 CNS
SR leukemia = tested on: SR leukemia
SW-620 colon = tested on: SW-620 colon
T-47D breast = tested on: T-47D breast
TK-10 renal = tested on: TK-10 renal
UACC-257 melanoma = tested on: UACC-257 melanoma
UACC-62 melanoma = tested on: UACC-62 melanoma
UO-31 renal = tested on: UO-31 renal
COLO 205 colon = tested on: COLO 205 colon
M14 melanoma = tested on: M14 melanoma
MALME-3M melanoma = tested on: MALME-3M melanoma
NCI-H23 lung = tested on: NCI-H23 lung
NCI-H522 lung = tested on: NCI-H522 lung
OVCAR-4 ovarian = tested on: OVCAR-4 ovarian
U251 CNS = tested on: U251 CNS

Clc1ccc2oc3c(NCCCN4CCOCC4)c4ccccc4nc3c2c1
GI50 (786-0 renal): 1610 nM
TGI (786-0 renal): 4.45 µM
GI50 (A498 renal): 4060 nM
TGI (A498 renal): 17 µM
GI50 (ACHN renal): 880 nM
TGI (ACHN renal): 2590 nM
GI50 (BT-549 breast): 2370 nM
TGI (BT-549 breast): 5.51 µM
GI50 (CAKI-1 renal): 1400 nM
TGI (CAKI-1 renal): 3.21 µM
GI50 (CCRF-CEM leukemia): 117 nM
TGI (CCRF-CEM leukemia): 5.48 µM
GI50 (DU-145 prostate): 2760 nM
TGI (DU-145 prostate): 11.5 µM
GI50 (EKVX NSCLC): 2890 nM
TGI (EKVX NSCLC): 10.1 µM
GI50 (HCC-2998 colon): 1360 nM
TGI (HCC-2998 colon): 3.11 µM
GI50 (HCT-15 colon): 1530 nM
TGI (HCT-15 colon): 5.33 µM
GI50 (HL-60(TB) leukemia): 295 nM
TGI (HL-60(TB) leukemia): 1210 nM
GI50 (HOP-62 NSCLC): 1720 nM
TGI (HOP-62 NSCLC): 4.65 µM
GI50 (HOP-92 NSCLC): 1320 nM
TGI (HOP-92 NSCLC): 5.64 µM
GI50 (HS 578T breast): 3.43 µM
TGI (HS 578T breast): 22.6 µM
GI50 (IGROV1 ovarian): 2790 nM
TGI (IGROV1 ovarian): 22.2 µM
GI50 (K-562 leukemia): 1560 nM
TGI (K-562 leukemia): 10.2 µM
GI50 (KM12 colon): 2490 nM
TGI (KM12 colon): > 100 µM
GI50 (LOX IMVI melanoma): 1270 nM
TGI (LOX IMVI melanoma): 2770 nM
GI50 (MCF7 breast): 1170 nM
TGI (MCF7 breast): 3.16 µM
GI50 (MDA-MB-231 breast): 2270 nM
TGI (MDA-MB-231 breast): 8.43 µM
GI50 (MDA-MB-435): 1660 nM
TGI (MDA-MB-435): 3.35 µM
GI50 (MOLT-4 leukemia): 534 nM
TGI (MOLT-4 leukemia): 12.7 µM
GI50 (NCI-H226 lung): 2200 nM
TGI (NCI-H226 lung): 6.2 µM
GI50 (NCI-H460 lung): 1180 nM
TGI (NCI-H460 lung): 3.38 µM
GI50 (NCI/ADR-RES ovarian): 1010 nM
TGI (NCI/ADR-RES ovarian): 5.55 µM
GI50 (OVCAR-3 ovarian): 3.29 µM
TGI (OVCAR-3 ovarian): 34.7 µM
GI50 (OVCAR-5 ovarian): 1830 nM
TGI (OVCAR-5 ovarian): 5.28 µM
GI50 (OVCAR-8 ovarian): 1820 nM
TGI (OVCAR-8 ovarian): 5.1 µM
GI50 (PC-3 prostate): 1780 nM
TGI (PC-3 prostate): 3.99 µM
GI50 (RPMI-8226 leukemia): 2120 nM
TGI (RPMI-8226 leukemia): 5.05 µM
GI50 (RXF 393 renal): 1410 nM
TGI (RXF 393 renal): 2800 nM
GI50 (SF-268 CNS): 2320 nM
TGI (SF-268 CNS): > 100 µM
GI50 (SF-295 CNS): 2760 nM
TGI (SF-295 CNS): 11.3 µM
GI50 (SF-539 CNS): 1560 nM
TGI (SF-539 CNS): 2.92 µM
GI50 (SK-MEL-2 melanoma): 3000 nM
TGI (SK-MEL-2 melanoma): 8.79 µM
GI50 (SK-MEL-28 melanoma): 1720 nM
TGI (SK-MEL-28 melanoma): 3.16 µM
GI50 (SK-MEL-5 melanoma): 4150 nM
TGI (SK-MEL-5 melanoma): 15.7 µM
GI50 (SK-OV-3 ovarian): 3230 nM
TGI (SK-OV-3 ovarian): 17.1 µM
GI50 (SN12C renal): 1600 nM
TGI (SN12C renal): 6.36 µM
GI50 (SNB-19 CNS): 3.48 µM
TGI (SNB-19 CNS): 20 µM
GI50 (SNB-75 CNS): 1770 nM
TGI (SNB-75 CNS): 5.88 µM
GI50 (SR leukemia): 1690 nM
TGI (SR leukemia): 8.9 µM
GI50 (SW-620 colon): 839 nM
TGI (SW-620 colon): 3210 nM
GI50 (T-47D breast): 3.06 µM
TGI (T-47D breast): 18.9 µM
GI50 (TK-10 renal): 4.61 µM
TGI (TK-10 renal): 20.7 µM
GI50 (UACC-257 melanoma): 1780 nM
TGI (UACC-257 melanoma): 3.5 µM
GI50 (UACC-62 melanoma): 2170 nM
TGI (UACC-62 melanoma): 5.07 µM
GI50 (UO-31 renal): 1340 nM
TGI (UO-31 renal): 3.68 µM

Clc1ccc2c(N/N=C/c3c[nH]c4ccccc34)ccnc2c1
GI50 (786-0 renal): 1410 nM
TGI (786-0 renal): 2.77 µM
GI50 (A498 renal): 1510 nM
TGI (A498 renal): 2.87 µM
GI50 (ACHN renal): 1870 nM
TGI (ACHN renal): 3270 nM
GI50 (BT-549 breast): 1550 nM
TGI (BT-549 breast): 2.91 µM
GI50 (CAKI-1 renal): 1680 nM
TGI (CAKI-1 renal): 3.1 µM
GI50 (COLO 205 colon): 1790 nM
TGI (COLO 205 colon): 3.42 µM
GI50 (DU-145 prostate): 1530 nM
TGI (DU-145 prostate): 2.93 µM
GI50 (HCT-15 colon): 373 nM
TGI (HCT-15 colon): 1.49 µM
GI50 (HOP-62 NSCLC): 1670 nM
TGI (HOP-62 NSCLC): 3.25 µM
GI50 (HOP-92 NSCLC): 539 nM
TGI (HOP-92 NSCLC): 2.02 µM
GI50 (KM12 colon): 1790 nM
TGI (KM12 colon): 3.33 µM
GI50 (M14 melanoma): 1730 nM
TGI (M14 melanoma): 3.18 µM
GI50 (MALME-3M melanoma): 1760 nM
TGI (MALME-3M melanoma): 3.27 µM
GI50 (MDA-MB-231 breast): 1650 nM
TGI (MDA-MB-231 breast): 3.17 µM
GI50 (MDA-MB-435): 1750 nM
TGI (MDA-MB-435): 3.18 µM
GI50 (MOLT-4 leukemia): 1050 nM
TGI (MOLT-4 leukemia): 3.83 µM
GI50 (NCI-H226 lung): 1880 nM
TGI (NCI-H226 lung): 4.54 µM
GI50 (NCI-H23 lung): 1620 nM
TGI (NCI-H23 lung): 3.17 µM
GI50 (NCI-H522 lung): 1770 nM
TGI (NCI-H522 lung): 3.32 µM
GI50 (NCI/ADR-RES ovarian): 1930 nM
TGI (NCI/ADR-RES ovarian): 4.45 µM
GI50 (OVCAR-4 ovarian): 1830 nM
TGI (OVCAR-4 ovarian): 3.63 µM
GI50 (OVCAR-5 ovarian): 1630 nM
TGI (OVCAR-5 ovarian): 3.04 µM
GI50 (PC-3 prostate): 1550 nM
TGI (PC-3 prostate): 2.95 µM
GI50 (RXF 393 renal): 1470 nM
TGI (RXF 393 renal): 2830 nM
GI50 (SF-295 CNS): 1820 nM
TGI (SF-295 CNS): 3.25 µM
GI50 (SF-539 CNS): 1720 nM
TGI (SF-539 CNS): 3.12 µM
GI50 (SK-MEL-2 melanoma): 1830 nM
TGI (SK-MEL-2 melanoma): 3.35 µM
GI50 (SK-MEL-28 melanoma): 1810 nM
TGI (SK-MEL-28 melanoma): 3.23 µM
GI50 (SK-MEL-5 melanoma): 1750 nM
TGI (SK-MEL-5 melanoma): 3.14 µM
GI50 (SK-OV-3 ovarian): 1670 nM
TGI (SK-OV-3 ovarian): 3.13 µM
GI50 (SNB-75 CNS): 1380 nM
TGI (SNB-75 CNS): 2.72 µM
GI50 (SW-620 colon): 793 nM
TGI (SW-620 colon): 2200 nM
GI50 (TK-10 renal): 2.09 µM
TGI (TK-10 renal): 3.57 µM
GI50 (U251 CNS): 837 nM
TGI (U251 CNS): 2110 nM
GI50 (UACC-257 melanoma): 1650 nM
TGI (UACC-257 melanoma): 3.04 µM
GI50 (UO-31 renal): 1320 nM
TGI (UO-31 renal): 2.66 µM
